The record followed here is PMC9496151, “Expression and Function of ABC Transporters in Human Alveolar Epithelial Cells” (Biomolecules, 2022).

Series [1] has as its system MDR1. Description: Bidirectional transport of Rhodamine123 (MDR1 activity) in EpiAlveolar. The format is in vitro ADME, human. The method, then:
(§1) The activity of ABC transporters was determined by measuring the apical-to-basolateral (AB) and basolateral-to-apical (BA) fluxes of specific substrates. To this aim, cell monolayers were washed twice in HBSS and equilibrated for 30 min in the same solution (pH 7.4, 37 °C). […] After 0, 30, 60, and 120 min, aliquots of the solution were collected from the opposite chamber (receiver chamber) and replaced with the same volume of HBSS. The fluxes were determined by reading fluorescence with an EnSpire® Multimode Plate Reader (Perkin Elmer), or radioactivity with MicroBeta^2 liquid scintillation spectrometer. The apparent permeability coefficient (Papp) was calculated from the data obtained.
(§2) Efflux ratio (ER) was calculated as the ratio between Papp measured for BA and AB fluxes, while uptake ratio (UR) was the ratio between Papp measured for AB and BA fluxes.

For series [2], the system named is MDR1. Description: Bidirectional transport of Rhodamine123 (MDR1 activity) in hAELVi. The format is in vitro ADME, human. As for the experimental part:
as §1, §2

The subject of series [3] is ABCG2/BCRP. Description: Bidirectional transport of Bodipy FL Prazosin (BCRP activity) in EpiAlveolar. In kind it is in vitro ADME, human. As for the experimental part: as §1, §2
The test system of series [4] is ABCG2/BCRP. Description: Bidirectional transport of Bodipy FL Prazosin (BCRP activity) in hAELVi. In kind it is in vitro ADME, human. As for the experimental part:
as §1, §2

The mark [5] stands for this setting: 10 µM PSC833, 1 µM Rhodamine123, AB and BA.

Method for EpiAlveolar™: The paracellular and transcellular permeability of cell monolayers to solutes was assessed by monitoring the apical-to-basolateral fluxes of ^14C-mannitol and ^3H-propranolol, respectively. In detail, cell monolayers were washed and incubated for 30 min in Hank’s Balanced Salt Solution (HBSS, pH 7.4, 37 °C); HBSS containing ^14C-mannitol (1 µCi/mL, corresponding to 20 µM) or ^3H-propranolol (3 µCi/mL; 10 µM) was then added to the apical side. Aliquots of medium were collected from the basolateral compartment after 0, 30, 60, and 120 min and replaced with fresh HBSS; radioactivity in each sample was measured with a MicroBeta^2 liquid scintillation spectrometer (Perkin Elmer, Italy) and employed to calculate the apparent permeability coefficient (Papp).
The apparent permeability coefficient (Papp) of the tracer molecules was calculated according to the equation:Papp = (dQ⁄dt)⁄(A×C0×60) where dQ/dt is the transport rate of the tracer, A is the filter surface area, C0 is the initial concentration of the tracer in the donor chamber, and 60 is the conversion from minutes to seconds.

In the case of `CC(C)NCC(O)COc1cccc2ccccc12` (centres unmarked) [propranolol], the “transcellular permeability (Papp), apical-to-basolateral flux” value in the series on hAELVi and in the series on EpiAlveolar™ was “comparable permeability” each time.

For the molecule `C/C=C/C[C@@H](C)C(=O)[C@H]1C(=O)N[C@@H](C(C)C)C(=O)N(C)CC(=O)N(C)[C@@H](CC(C)C)C(=O)N[C@@H](C(C)C)C(=O)N(C)[C@@H](CC(C)C)C(=O)N[C@@H](C)C(=O)N[C@H](C)C(=O)N(C)[C@@H](CC(C)C)C(=O)N(C)[C@@H](CC(C)C)C(=O)N(C)[C@@H](C(C)C)C(=O)N1C` [PSC833], the “effect of inhibitor on Papp of Rhodamine123” value in the series with MDR1 [1] (setting [5]) and in the series on MDR1 [2] (setting [5]) was “not modified” throughout.

For the molecule `COc1ccc2c3c([nH]c2c1)[C@H](CC(C)C)N1C(=O)[C@H](CCC(=O)OC(C)(C)C)NC(=O)[C@@H]1C3` [Ko143], the “inhibition of Bodipy™ FL Prazosin fluxes” value in the series on ABCG2/BCRP [3] (20 µM Ko143) and with ABCG2/BCRP [4] (20 µM Ko143) was “no inhibition” in each case.

In the case of `OC[C@@H](O)[C@@H](O)[C@H](O)[C@H](O)CO` [mannitol], the “paracellular permeability (Papp), apical-to-basolateral flux” value with hAELVi is given as “slight not significant difference”; in the series with EpiAlveolar™ it was “more permeable”.

With `COC(=O)c1ccccc1-c1c2ccc(=N)cc-2oc2cc(N)ccc12` [Rhodamine123], in the series on MDR1 [1] (1 µM Rhodamine123), the “Papp, AB versus BA fluxes” value is “comparable for AB and BA fluxes”; the “efflux ratio (ER) versus uptake ratio (UR)” value was “comparable values”. Besides, in the series on MDR1 [2] (1 µM Rhodamine123), the “Papp, AB versus BA fluxes” value was “comparable for AB and BA fluxes”; the “efflux ratio (ER) versus uptake ratio (UR)” value is on record as “comparable values”.

On to `Cc1nc(-c2ccc(OCC(C)C)c(C#N)c2)sc1C(=O)O` [febuxostat], for which the “inhibition of Bodipy™ FL Prazosin fluxes” value in the series on ABCG2/BCRP [3] (50 µM Febuxostat) and in the series on ABCG2/BCRP [4] (50 µM Febuxostat) was “no inhibition” throughout.
